What was measured:
[1] = Solubility in water at 25° C. under normal pressure; format: physicochemical; conditions: supernatant by HPLC
Method: The solubility of the solid oxidized glutathione salt of the present invention in water at temperature of 25° C. can be calculated according to the following formula, and the solubility is, for example, 10 mass % or more, preferably 20 mass % or more, and more preferably 30 mass % or more.
Solubility (%)=mass of dissolved oxidized glutathione/(mass of water+mass of dissolved oxidized glutathione)×100
Evaluation 1: Solubility in water at 25° C. under normal pressure and deliquescency of oxidized glutathione salt
Each of the powders of the solid-state oxidized glutathione salt obtained in the above respective Examples was dissolved in water until the powder was not further dissolved. After each slurry was stirred for 30 minutes or longer, the supernatant was obtained and the concentrations of each oxidized glutathione and salt were calculated using HPLC. For comparison, the solubilities of the following conventionally known solid oxidized glutathiones were investigated in the same manner as the above.

[2] = Deliquescency of powder at 25° C., normal pressure, 75% RH, observed with naked eyes; format: physicochemical; conditions: relative humidity 75% RH
Method: The solid oxidized glutathione salt obtained as described above has low deliquescency and high water solubility. The deliquescency of the solid oxidized glutathione can be evaluated by allowing a powder of the salt to stand in an environment at a temperature of 25° C., normal pressure, e.g. 1 atmospheric pressure, and a relative humidity of 75% RH, and observing whether deliquescence starts or not with naked eyes.
Each of the powders of the solid-state oxidized glutathione salt obtained in the above respective Examples was allowed to stand in atmospheric condition of a temperature of 25° C., normal pressure and a relative humidity of 75% RH. After 2 hours or 24 hours, it was determined whether or not deliquescence was is present by observing the occurrence of shape change with naked eyes. For comparison, the deliquescencies of the above commercially available solid oxidized glutathiones were investigated in the same manner.

For “oxidized glutathione hemicalcium salt [Example 6]”, the Solubility [1] was 58 mass %, the “Deliquescency 2 hours” value ([2]; after 2 hours) was “no” and the “Deliquescency 24 hours” value ([2]; after 24 hours) was “no”.
With “oxidized glutathione monoammonium salt [Example 2]” the Solubility [1] was 34.8 mass %.
